Laboratory results as given in ChEMBL document CHEMBL1141732, “Croton ruizianus: platelet proaggregating activity of two new pregnane glycosides” (J Nat Prod, 1998).

Key:
[1] = Cytotoxicity against human washed-platelet assessed as LDH release after 5 mins by sonication method; assay type: cell-based
Platelet [2] = assay: Induction of human washed-platelet aggregation at 232 ug/test tube after 1 min by light transmission aggregometer; assay type: functional
Platelet [3] = assay: Induction of human washed-platelet aggregation at 232 ug/test tube after 4 mins by light transmission aggregometer; assay type: functional
Platelet [4] = assay: Induction of human washed-platelet aggregation at 20 ug/test tube after 1 min by light transmission aggregometer; assay type: functional
Platelet [5] = assay: Induction of human washed-platelet aggregation at 20 ug/test tube after 4 mins by light transmission aggregometer; assay type: functional
Platelet [6] = assay: Induction of human washed-platelet aggregation at 273 ug/test tube after 1 min by light transmission aggregometer; assay type: functional
Platelet [7] = assay: Induction of human washed-platelet aggregation at 273 ug/test tube after 4 mins by light transmission aggregometer; assay type: functional
Platelet [8] = assay: Induction of human washed-platelet aggregation at 82 ug/test tube after 1 min by light transmission aggregometer; assay type: functional
Platelet [9] = assay: Induction of human washed-platelet aggregation at 82 ug/test tube after 4 mins by light transmission aggregometer; assay type: functional
Platelet [10] = assay: Induction of human washed-platelet aggregation at 85 ug/test tube after 4 mins by light transmission aggregometer; assay type: functional
Platelet [11] = assay: Induction of human washed-platelet aggregation at 85 ug/test tube after 1 min by light transmission aggregometer; assay type: functional

Row | SMILES | Activity [1] | Activity (Platelet [2]) | Activity (Platelet [3]) | Activity (Platelet [4]) | Activity (Platelet [5]) | Activity (Platelet [6]) | Activity (Platelet [7]) | Activity (Platelet [8]) | Activity (Platelet [9]) | Activity (Platelet [10]) | Activity (Platelet [11])
1 | CO[C@@H]1[C@@H](O)[C@H](O[C@H]2CC[C@@]3(C)[C@@H](CC[C@@H]4[C@@H]3CC[C@]3(C)[C@@H](C(C)=O)[C@H](O)[C@@H](O)[C@]43O)C2)O[C@H](C)[C@H]1O[C@@H]1C[C@@H](O)[C@@H](O[C@@H]2C[C@H](OC)[C@@H](O[C@H]3C[C@@H](OC)[C@H](O)[C@@H](C)O3)[C@H](C)O2)[C@H](C)O1 | <= 3.8% | 18.3% | 54.5% | 12.5% | 12.5% |  |  |  |  |  | 
2 | CO[C@@H]1[C@@H](O)[C@H](O[C@H]2CC[C@@]3(C)[C@@H](CC[C@@H]4[C@@H]3CC[C@]3(C)[C@@H](C(C)=O)[C@H](O)[C@@H](O)[C@]43O)C2)O[C@H](C)[C@H]1O[C@@H]1C[C@@H](O)[C@@H](O[C@@H]2C[C@H](OC)[C@@H](O[C@H]3C[C@@H](OC)[C@H](O[C@@H]4O[C@H](CO)[C@@H](O)[C@H](O)[C@H]4O)[C@@H](C)O3)[C@H](C)O2)[C@H](C)O1 | <= 3.8% |  |  | 5.3% | 9.4% | 14.1% | 42.3% |  |  |  | 
3 | COC1=C[C@]23CCN(C)[C@H](Cc4cc(OC)c(O)cc42)C3=CC1=O [FLAVINANTINE] | <= 3.8% |  |  | 2.1% | 3.5% |  |  | 6.3% | 17.5% |  | 
4 | COC1=C[C@]23CCN(C)[C@H](Cc4cc(OC)c(OC)cc42)C3=CC1=O [O-METHYLFLAVINANTINE] | <= 3.8% |  |  | 0% | 0% |  |  |  |  | 8.8% | 3.1%
